In ChEMBL document CHEMBL1201862, “PubChem BioAssay data set” (2004):
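96-well plates; 48 h exposure; 5 concentrations. Endpoints by linear interpolation between flanking doses. Not reached: highest tested concentration assigned. GI50 marks 50% less growth.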 The source made the active and inactive calls. Rule as the data show it: active = GI50 up to about 1.1 µM and inactive = higher.

Experiments:
Test in all cases: DTP human tumour cell line panel, 48 h
SF-295 = tested on: SF-295
K562 = tested on: K562
HOP-62 = tested on: HOP-62
OVCAR-4 = tested on: OVCAR-4
CCRF-CEM = tested on: CCRF-CEM
HOP-92 = tested on: HOP-92
DU-145 = tested on: DU-145
HT-29 = tested on: HT-29
OVCAR-3 = tested on: OVCAR-3
SK-MEL-2 = tested on: SK-MEL-2
U-251 = tested on: U-251
NCI/ADR-RES = tested on: NCI/ADR-RES
NCI-H460 = tested on: NCI-H460
MCF7 = tested on: MCF7
LOX IMVI = tested on: LOX IMVI
786-0 = tested on: 786-0
SF-268 = tested on: SF-268
SK-MEL-28 = tested on: SK-MEL-28
RXF 393 = tested on: RXF 393
SNB-19 = tested on: SNB-19

SMILES | GI50 (SF-295) | GI50 (K562) | GI50 (HOP-62) | GI50 (OVCAR-4) | GI50 (CCRF-CEM) | GI50 (HOP-92) | GI50 (DU-145) | GI50 (HT-29) | GI50 (OVCAR-3) | GI50 (SK-MEL-2) | GI50 (U-251) | GI50 (NCI/ADR-RES) | GI50 (NCI-H460) | GI50 (MCF7) | GI50 (LOX IMVI) | GI50 (786-0) | GI50 (SF-268) | GI50 (SK-MEL-28) | GI50 (RXF 393) | GI50 (SNB-19)
COc1cccc(C2c3cc4c(cc3OC(NNC(N)=O)C2C)OCO4)c1O (stereo not given) | 0.593 µM (active) | 0.516 µM (active) | 1.35 µM (inactive) | 38.8 µM (inactive) | 0.929 µM (active) | 0.269 µM (active) | 4.25 µM (inactive) | 1.7 µM (inactive) | 0.783 µM (active) | 0.703 µM (active) | 1.07 µM (active) | 3.36 µM (inactive) | 0.951 µM (active) | 0.491 µM (active) | 0.933 µM (active) | 1.52 µM (inactive) | 3.37 µM (inactive) | 1.99 µM (inactive) | 0.766 µM (active) | 9.14 µM (inactive)
COc1ccc(O)c(/C=N/NC(=S)N2CCCCC2)c1 | 3.33 µM (inactive) | 3.05 µM (inactive) | 1.35 µM (inactive) | 4.59 µM (inactive) | 0.569 µM (active) | 5.18 µM (inactive) | 1.74 µM (inactive) | 8.17 µM (inactive) | 0.319 µM (active) | 25.1 µM (inactive) | 1.85 µM (inactive) | 1.77 µM (inactive) | 1.22 µM (inactive) | 7.96 µM (inactive) | 0.767 µM (active) | 1.15 µM (inactive) | 0.948 µM (active) | 3.17 µM (inactive) | 7.73 µM (inactive) | 4.51 µM (inactive)
CC(NC1=NCCO1)c1ccco1 (stereo not given) | > 100 µM (inactive) | > 100 µM (inactive) | > 100 µM (inactive) | > 100 µM (inactive) | > 100 µM (inactive) | > 100 µM (inactive) | > 100 µM (inactive) | 93.8 µM (inactive) | > 100 µM (inactive) | 60.4 µM (inactive) | > 100 µM (inactive) | > 100 µM (inactive) | > 100 µM (inactive) | > 100 µM (inactive) | > 100 µM (inactive) | > 100 µM (inactive) | > 100 µM (inactive) | > 100 µM (inactive) | > 100 µM (inactive) | > 100 µM (inactive)
CCCCSC1=N/C(=C\c2ccc(N(C)C)cc2)C(NN)=N1 | > 100 µM (inactive) | > 100 µM (inactive) | > 100 µM (inactive) | > 100 µM (inactive) | > 100 µM (inactive) | > 100 µM (inactive) | > 100 µM (inactive) | > 100 µM (inactive) | > 100 µM (inactive) | > 100 µM (inactive) | > 100 µM (inactive) | > 100 µM (inactive) | > 100 µM (inactive) | > 100 µM (inactive) | > 100 µM (inactive) | > 100 µM (inactive) | > 100 µM (inactive) | > 100 µM (inactive) | > 100 µM (inactive) | > 100 µM (inactive)
CCCCCCOc1ccc(C(=O)N(C)O)cc1 | 9.55 µM (inactive) | 8.83 µM (inactive) | 11 µM (inactive) | 31.4 µM (inactive) | 1.85 µM (inactive) | 21.1 µM (inactive) | 16.5 µM (inactive) | 10.9 µM (inactive) | 9.68 µM (inactive) | 32.4 µM (inactive) | 12.5 µM (inactive) | 10.1 µM (inactive) | 6.12 µM (inactive) | 28.9 µM (inactive) | 7.52 µM (inactive) | 12.4 µM (inactive) | 11.5 µM (inactive) | 40.7 µM (inactive) | 13.1 µM (inactive) | 24.2 µM (inactive)
CC(C)(C)c1cc(C(=O)/C=C/C=C/c2ccccc2)cc(C(C)(C)C)c1O | 27.2 µM (inactive) | 7.31 µM (inactive) | 41.2 µM (inactive) | > 51.5 µM (inactive) | 3.15 µM (inactive) | 42.2 µM (inactive) | 29.4 µM (inactive) | 22.9 µM (inactive) | 27.4 µM (inactive) | 11.7 µM (inactive) | 14.2 µM (inactive) | 8.73 µM (inactive) | 15.4 µM (inactive) | 8.3 µM (inactive) | 19.8 µM (inactive) | 17.1 µM (inactive) | 25.2 µM (inactive) | 30.5 µM (inactive) | 2.94 µM (inactive) | 22.3 µM (inactive)
CC(C)OP(=O)(OC(C)C)C(C(C)C)N(C)/C(N)=N/C#N (stereo not given) | > 100 µM (inactive) | > 100 µM (inactive) | > 100 µM (inactive) | > 100 µM (inactive) | > 100 µM (inactive) | > 100 µM (inactive) | > 100 µM (inactive) | > 100 µM (inactive) | > 100 µM (inactive) | > 100 µM (inactive) | > 100 µM (inactive) | > 100 µM (inactive) | > 100 µM (inactive) | > 100 µM (inactive) | > 100 µM (inactive) | > 10 µM (inactive) | > 100 µM (inactive) | > 100 µM (inactive) | > 100 µM (inactive) | > 100 µM (inactive)
CC(=O)NNc1nc(C)c(C(/C=C/c2ccc3c(c2)OCO3)=N/Nc2ccccc2)s1 | > 100 µM (inactive) | > 100 µM (inactive) | > 100 µM (inactive) | > 100 µM (inactive) | > 100 µM (inactive) | > 100 µM (inactive) | > 100 µM (inactive) | > 100 µM (inactive) | > 100 µM (inactive) | > 100 µM (inactive) | > 100 µM (inactive) | > 100 µM (inactive) | > 100 µM (inactive) | > 100 µM (inactive) | > 100 µM (inactive) | > 100 µM (inactive) | > 100 µM (inactive) | > 100 µM (inactive) | > 100 µM (inactive) | > 100 µM (inactive)
Cc1cc(O)nc(NN2C(Cl)C(=O)C2c2ccc(Cl)cc2)n1 (stereo not given) | 8.61 µM (inactive) | 2.88 µM (inactive) | 19.6 µM (inactive) | 22.9 µM (inactive) | 1.87 µM (inactive) | 12.9 µM (inactive) | 23.3 µM (inactive) | 18 µM (inactive) | 13.6 µM (inactive) | 19.3 µM (inactive) | 20.5 µM (inactive) | 20.7 µM (inactive) | 16.4 µM (inactive) | 12.8 µM (inactive) | 4.15 µM (inactive) | 15.6 µM (inactive) | 19.8 µM (inactive) | 18.2 µM (inactive) | 17.4 µM (inactive) | 19.4 µM (inactive)
C=C1C(=O)OC2C1C(OC(=O)/C(C)=C/C)CC(O)(CCl)C1C(OC(C)=O)C=C(C)C21O (stereo not given) | 58.5 µM (inactive) | 7.8 µM (inactive) | 34.8 µM (inactive) | 17.2 µM (inactive) | 2.79 µM (inactive) | 13.1 µM (inactive) | 15.2 µM (inactive) | 16.3 µM (inactive) | 8.93 µM (inactive) | 15.9 µM (inactive) | 20.2 µM (inactive) | 16.3 µM (inactive) | 20.8 µM (inactive) | 6.56 µM (inactive) | 6.49 µM (inactive) | 11.6 µM (inactive) | 16 µM (inactive) | 10.5 µM (inactive) | 11.2 µM (inactive) | > 42.9 µM (inactive)
O=C(OCc1ccccc1)N(CCCCN(CCCNC(=O)C(F)(F)F)C(=O)OCc1ccccc1)CCCNC(=O)C(F)(F)F | > 100 µM (inactive) | > 100 µM (inactive) | > 100 µM (inactive) | > 100 µM (inactive) | > 100 µM (inactive) | > 100 µM (inactive) | > 100 µM (inactive) | > 28.4 µM (inactive) | > 100 µM (inactive) | > 100 µM (inactive) | > 100 µM (inactive) | 22.5 µM (inactive) | > 83.6 µM (inactive) | > 100 µM (inactive) | > 100 µM (inactive) | > 100 µM (inactive) | > 100 µM (inactive) | > 100 µM (inactive) | > 100 µM (inactive) | 4.2 µM (inactive)
O=C(O/C=C\OC1CCCC1(c1ccccc1)c1ccccc1)c1ccccc1 (stereo not given) | 19.2 µM (inactive) | 4.19 µM (inactive) | 18.8 µM (inactive) | 3.15 µM (inactive) | 2.04 µM (inactive) | 2.07 µM (inactive) | 3.02 µM (inactive) | 3.44 µM (inactive) | 9.2 µM (inactive) | 3.31 µM (inactive) | 3.66 µM (inactive) | 2.88 µM (inactive) | 25.9 µM (inactive) | 2.6 µM (inactive) | 1.67 µM (inactive) | 4.03 µM (inactive) | 4.05 µM (inactive) | 5.71 µM (inactive) | 2.49 µM (inactive) | 14.8 µM (inactive)
CC(=O)Nc1ccc(NS(=O)(=O)c2ccc3nc(C)n(NS(=O)(=O)c4ccc(NC(C)=O)cc4)c(=O)c3c2)cc1 | > 100 µM (inactive) | > 100 µM (inactive) | > 100 µM (inactive) | > 100 µM (inactive) | > 100 µM (inactive) | > 100 µM (inactive) | > 100 µM (inactive) | > 100 µM (inactive) | > 100 µM (inactive) | > 100 µM (inactive) | > 100 µM (inactive) | > 100 µM (inactive) | > 100 µM (inactive) | > 100 µM (inactive) | > 100 µM (inactive) | > 100 µM (inactive) | > 100 µM (inactive) | > 100 µM (inactive) | > 100 µM (inactive) | > 100 µM (inactive)
SC1=C2CCCCCC2=NC2(CCCCCC2)S1 | 23.6 µM (inactive) | 12.2 µM (inactive) | 31.7 µM (inactive) | 16.9 µM (inactive) | 33.6 µM (inactive) | 21.1 µM (inactive) | 30.8 µM (inactive) | 24.9 µM (inactive) | 20.5 µM (inactive) | 6.3 µM (inactive) | 32 µM (inactive) | 26.5 µM (inactive) | 17.3 µM (inactive) | 19 µM (inactive) | 29.4 µM (inactive) | 33.1 µM (inactive) | 41.7 µM (inactive) | 72.9 µM (inactive) | 32.6 µM (inactive) | 25.8 µM (inactive)
